Among the data in patent publication US11673889B2, “Substituted imidazo[4,5-c][1,8]naphthyridines as phosphodiesterase inhibitors” (Nanjing Zhengxiang Pharmaceuticals Co., Ltd., priority 2019, dated 2023) are IC50 and inhibition values, retold here.

The target of assay [1] is T1, human soluble ENPP1 (Homo sapiens, UniProt P22413).
T1 construct: 20 ng of human soluble ENPP1
T1 sequence (P22413 103-925 limits assumed): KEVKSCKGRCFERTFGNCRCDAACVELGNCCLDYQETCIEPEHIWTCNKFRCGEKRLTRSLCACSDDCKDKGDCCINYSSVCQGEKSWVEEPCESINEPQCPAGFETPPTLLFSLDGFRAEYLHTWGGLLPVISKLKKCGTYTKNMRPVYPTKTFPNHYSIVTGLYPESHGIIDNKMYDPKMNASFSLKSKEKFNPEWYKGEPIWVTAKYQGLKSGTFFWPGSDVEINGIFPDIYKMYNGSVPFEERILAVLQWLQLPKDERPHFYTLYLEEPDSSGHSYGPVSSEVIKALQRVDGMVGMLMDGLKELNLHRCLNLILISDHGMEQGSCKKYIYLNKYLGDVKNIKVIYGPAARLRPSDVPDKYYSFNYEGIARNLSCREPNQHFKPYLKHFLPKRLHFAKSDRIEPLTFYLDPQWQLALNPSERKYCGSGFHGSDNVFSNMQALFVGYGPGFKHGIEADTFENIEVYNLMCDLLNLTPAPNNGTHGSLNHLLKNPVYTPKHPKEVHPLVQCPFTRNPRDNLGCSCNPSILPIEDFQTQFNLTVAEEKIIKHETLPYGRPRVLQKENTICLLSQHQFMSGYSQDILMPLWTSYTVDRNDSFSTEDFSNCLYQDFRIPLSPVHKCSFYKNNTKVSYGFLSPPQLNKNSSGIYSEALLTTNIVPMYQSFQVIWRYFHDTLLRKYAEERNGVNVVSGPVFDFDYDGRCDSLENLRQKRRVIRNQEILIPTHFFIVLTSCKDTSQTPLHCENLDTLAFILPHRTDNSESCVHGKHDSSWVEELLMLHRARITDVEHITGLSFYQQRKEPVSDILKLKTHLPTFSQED
Nature of the assay: ENPP1 activity assay using p-Nitrophenyl-5′-TMP as a substrate. The class given is biochemical. The procedure: ENPP1 is a transmembrane glycoprotein that hydrolyzes nucleotides and nucleotide derivatives with the formation of nucleotide-5′-monophosphates. ENPP1 hydrolyzes artificial phosphoric acid ester thymidine 5′monophosphate p-nitrophenyl ester (TMP-pNP) to nucleotide-5′-monophosphate and p-nitrophenol, which is a chromogenic product.
Load into a well with 20 ng of human soluble ENPP1 in 50 μL and incubate at room temperature with 25 μL inhibitor solution (4× Final Concentration) for 30 mins. Then, add 25 μL 2 mM TMP solution (2× Final Concentration) into the well, Incubate at RT for 1 hour.
(§1) The percent inhibition at each compound is calculated as follows: % inhibition=(ODMAX−ODCOMPOUND)/(ODMAX−ODMIN)*100. (MAX: absence of ENPP1 inhibitors control, MIN: blank control.)
The IC50 values for percent inhibition versus compound concentration were determined by fitting the inhibition curves using a four-parameter variable slope model in GraphPad Prism® 8.

The target in assay [2] is T1, human soluble ENPP1. Nature of the assay: ENPP1 activity assay using p-Nitrophenyl-5′-AMP as a substrate. In kind it is biochemical. The procedure:
AMP-pNP can be used as substrate of ENPP-1. Its hydrolysis products were nucleotide-5′-monophosphate and p-nitrophcnol, which is also a chromogenic product. The amount of p-nitrophenol product formed is measured using its absorbance at 405 nm, which is directly proportional to enzyme activity.
Load into a well with […] of human soluble ENPP1 in 50 μL and incubate at room temperature with 25 μL inhibitor solution (4× Final Concentration) for 30 mins prior adding 25 μL 3 mM AMP solution (2× Final Concentration) into the well, Incubate at RT for 1 hour. The amounts of released p-nitrophenolate were measured by reading OD value at 405 nm.
as §1
(§2) The IC50 values for percent inhibition versus compound concentration are determined by fitting the inhibition curves using a four-parameter variable slope model in GraphPad Prism® 8.

The target in the next assay is T2, ENPP-1, MDA-MB-231 cells (Homo sapiens, UniProt P22413).
T2 sequence (P22413 1-925): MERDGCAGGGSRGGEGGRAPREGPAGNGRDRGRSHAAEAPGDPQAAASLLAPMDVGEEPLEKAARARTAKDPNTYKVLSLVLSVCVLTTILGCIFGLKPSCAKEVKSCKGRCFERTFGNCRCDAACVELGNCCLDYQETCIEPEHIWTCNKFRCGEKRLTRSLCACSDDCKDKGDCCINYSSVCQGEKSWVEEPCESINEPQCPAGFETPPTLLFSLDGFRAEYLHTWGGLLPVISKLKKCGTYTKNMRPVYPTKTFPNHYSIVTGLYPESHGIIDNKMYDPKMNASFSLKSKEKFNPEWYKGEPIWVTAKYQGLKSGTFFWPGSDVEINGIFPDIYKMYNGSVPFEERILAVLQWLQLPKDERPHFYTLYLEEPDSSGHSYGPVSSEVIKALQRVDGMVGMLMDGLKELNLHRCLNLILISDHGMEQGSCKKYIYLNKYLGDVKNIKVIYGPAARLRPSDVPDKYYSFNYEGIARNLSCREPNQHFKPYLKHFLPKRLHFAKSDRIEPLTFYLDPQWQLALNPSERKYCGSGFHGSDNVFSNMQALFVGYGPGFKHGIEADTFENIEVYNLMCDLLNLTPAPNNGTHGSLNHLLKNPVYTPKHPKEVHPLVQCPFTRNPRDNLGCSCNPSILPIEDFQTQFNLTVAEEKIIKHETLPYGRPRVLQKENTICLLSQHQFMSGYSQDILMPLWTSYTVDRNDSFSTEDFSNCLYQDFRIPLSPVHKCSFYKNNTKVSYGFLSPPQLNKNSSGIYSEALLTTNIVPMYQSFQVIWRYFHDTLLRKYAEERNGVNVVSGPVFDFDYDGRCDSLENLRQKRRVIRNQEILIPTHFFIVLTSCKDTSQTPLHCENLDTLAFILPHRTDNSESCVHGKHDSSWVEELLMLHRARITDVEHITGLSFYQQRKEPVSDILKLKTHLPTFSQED
Description: cell-based. To be noted: for inhibition at 20 µM: MDA-MB-231, read-out: % Inhibition (at 20 μM). The procedure:
ENPP-1 were mainly expressed on the surface of cell membrane where it hydrolytes 2′3′-cGAMP to generate 5′-GMP and 5′-AMP. ENPP-1 also has the ability to hydrolyzes artificial phosphoric acid ester TMP-pNP to nucleotide-5′-monophosphate and p-nitrophcnol there, which is a chromogenic product.
8 point of different concentrations of each inhibitor were prepared with the final assay concentrations starting at 20 μM. 3× series dilution by DMEM medium without FBS was applied. Prior to adding inhibitors, 75000 cells per well were incubated at 37° C., 5% CO2 in DMEM for 24 hours. After removing the supernatant medium, 50 μL inhibitor solution was added into each well with cultured cells and incubate at 37° C., 5% CO2 for 60 minutes.
as §2

As a reminder, the IC50 is the concentration at which inhibition is half-maximal. In general, inhibition refers to the drop in the measured response relative to a control, in per cent.

Compound `COc1cc2ncc3c(c2cc1OC)n(Cc1ccc(S(N)(=O)=O)cc1)c(=O)n3C` [Compound 2, 4-((7,8-dimethoxy-3-methyl-2-oxo-2,3-dihydro-1H-imidazo[4,5-c]quinolin-1-yl)methyl)benzenesulfonamide] gave an IC50 against human soluble ENPP1 [1] of 10 nM.

At human soluble ENPP1 [1], `COc1ccc2c(c1)ncc1[nH]c(=O)n([C@H](C)c3ccc(S(N)(=O)=O)cc3)c12` [Compound 8, (R)-4-(1-(7-methoxy-2-oxo-2,3-dihydro-1H-imidazo[4,5-c]quinolin-1-yl)ethyl)benzenesulfonamide] had an IC50 of 0.3 nM.

On to `COc1cc2ncc3ncn([C@@H](C)c4ccc(S(N)(=O)=O)cc4)c3c2cc1OC` [Compound 11b, (S)-4-(1-(7,8-dimethoxy-1H-imidazo[4,5-c]quinolin-1-yl)ethyl)benzenesulfonamide], for which the midpoint of inhibition on human soluble ENPP1 [1], the IC50, lay at 196 nM.

As for `COc1cc2ncc3nnn(Cc4ccc(S(N)(=O)=O)cc4)c3c2cc1OC` [Compound 13, 4-((7,8-dimethoxy-1H-[1,2,3]triazolo[4,5-c]quinolin-1-yl)methyl)benzenesulfonamide], the IC50 at human soluble ENPP1 [2] stood at 33 nM; at human soluble ENPP1 [1], 4.3 nM.

As to `COc1cc2ncc3ncn(CC4CCN(S(N)(=O)=O)CC4)c3c2cc1OC` [Compound 32, 4-((7,8-dimethoxy-1H-imidazo[4,5-c]quinolin-1-yl)methyl)piperidine-1-sulfonamide], the IC50 against human soluble ENPP1 [1] stood at 7.7 nM.

On to `COc1cc2ncc3ncn(Cc4cccc(S(N)(=O)=O)c4)c3c2cc1OC` [Compound 37, 3-((7,8-dimethoxy-1H-imidazo[4,5-c]quinolin-1-yl)methyl)benzenesulfonamide], for which the IC50 on human soluble ENPP1 [1] is 165 nM.

In turn, `COc1cc2ncc3nnc(Cc4ccc(S(N)(=O)=O)cc4)n3c2cc1OC` [Compound 44, 4-((7,8-dimethoxy-2λ^2,10λ^4-[1,2,4]triazolo[4,3-a]quinoxalin-1-yl)methyl)benzenesulfonamide] showed an IC50 against human soluble ENPP1 [1] of 65 nM.

The compound `COc1cc2ncc3ncn(Cc4ccc(S(N)(=O)=O)cc4)c3c2cn1` [Compound 50, 4-((7-methoxy-1H-imidazo[4,5-c][1,6]naphthyridin-1-yl)methyl)benzenesulfonamide] had an IC50 against human soluble ENPP1 [1] of 28 nM.

On human soluble ENPP1 [1], `COc1cc2ncc3nnc(-c4ccc(CNS(N)(=O)=O)cc4)n3c2cc1OC` [Compound 51, 4-(7,8-dimethoxy-[1,2,4]triazolo[4,3-a]quinoxalin-1-yl)benzyl sulfamide] gave an IC50 of 884 nM.

With `COc1ccc2c(ncc3nc(OC)n(Cc4ccc(S(N)(=O)=O)c(F)c4)c32)n1` [Compound 78, 4-((2,7-dimethoxy-1H-imidazo[4,5-c][1,8]naphthyridin-1-yl)methyl)-2-fluorobenzenesulfonamide], the IC50 against human soluble ENPP1 [2] is 7.2 nM; at human soluble ENPP1 [1] it was 1.7 nM.

In the case of `COc1nc2nc(C)c3nc(C)n(Cc4ncc(S(N)(=O)=O)cn4)c3c2cc1Cl` [Compound 91b, 2-((6-chloro-7-methoxy-2,4-dimethyl-1H-imidazo[4,5-c][1,8]naphthyridin-1-yl)methyl)pyrimidine-5-sulfonamide], the figures for the IC50 on human soluble ENPP1 [2] and against human soluble ENPP1 [1] were 199 nM and 62 nM, respectively.

On to `COc1ccc2c(ncc3[nH]c(=O)n(Cc4cc(F)c(S(N)(=O)=O)c(F)c4)c32)n1` [Compound 100, 2,6-difluoro-4-((7-methoxy-2-oxo-2,3-dihydro-1H-imidazo[4,5-c][1,8]naphthyridin-1-yl)methyl)benzenesulfonamide], for which it took 8.8 nM to reach half-maximal inhibition against human soluble ENPP1 [1] (IC50).

Take `CCCC(=O)NS(=O)(=O)c1cc(F)c(Cn2c(=O)[nH]c3cnc4nc(OC)ccc4c32)c(F)c1` [Compound 106, sodium butyryl((3,5-difluoro-4-((7-methoxy-2-oxo-2,3-dihydro-1H-imidazo[4,5-c][1,8]naphthyridin-1-yl)methyl)phenyl)sulfonyl)amide]: at ENPP-1, MDA-MB-231 cells, the IC50 is over 6.7 µM and the inhibition at 20 µM was found to be 57%.

For the compound `CNS(=O)(=O)c1cc(F)c(Cn2c(=O)[nH]c3cnc4nc(OC)ccc4c32)c(F)c1` [Compound 107, 3,5-difluoro-4-((7-methoxy-2-oxo-2,3-dihydro-1H-imidazo[4,5-c][1,8]naphthyridin-1-yl)methyl)-N-methylbenzenesulfonamide], the IC50 at human soluble ENPP1 [2] turned out to be 79 nM; against human soluble ENPP1 [1], 43 nM.

On to `COc1ccc2c(ncc3[nH]c(=O)n(Cc4c(F)cc(C(N)=O)cc4F)c32)n1` [Compound 109, 3,5-difluoro-4-((7-methoxy-2-oxo-2,3-dihydro-1H-imidazo[4,5-c][1,8]naphthyridin-1-yl)methyl)benzamide], for which, on ENPP-1, MDA-MB-231 cells, the IC50 is over 20 µM and the inhibition at 20 µM stood at 11%.

On to `COc1ccc2c(ncc3[nH]c(=O)n(Cc4ccc(CS(N)(=O)=O)cc4)c32)n1` [Compound 128, (4-((7-Methoxy-2-oxo-2,3-dihydro-1H-imidazo[4,5-c][1,8]naphthyridin-1-yl)methyl)phenyl)-methanesulfonamide], for which the inhibition at 20 µM at ENPP-1, MDA-MB-231 cells was 82%.

In the case of `COc1ccc2c(ncc3ncn(Cc4c(F)cc(S(N)(=O)=O)cc4F)c32)n1` [Compound 129, 3,5-difluoro-4-((7-methoxy-1H-imidazo[4,5-c][1,8]naphthyridin-1-yl)methyl)benzenesulfonamide], the figures for the IC50 on human soluble ENPP1 [2] and on human soluble ENPP1 [1] were 0.19 nM and 0.1 nM, respectively.

As for `COc1ccc2c(ncc3nc(C)n(Cc4c(F)cc(S(N)(=O)=O)cc4F)c32)n1` [Compound 130, 3,5-difluoro-4-((7-methoxy-2-methyl-1H-imidazo[4,5-c][1,8]naphthyridin-1-yl)methyl)benzenesulfonamide], the IC50 was determined as 0.16 nM against human soluble ENPP1 [2] and 0.16 nM on human soluble ENPP1 [1] (substrate TMP-pNP, 20 ng human soluble ENPP1, Tris buffer pH 9.5, read-out: TMP-pNP (IC50)).

Regarding `COc1ccc2c(ncc3[nH]c(=O)n(Cc4c(F)cc(NS(N)(=O)=O)cc4F)c32)n1` [Compound 138], the values for the IC50 on human soluble ENPP1 [2] and at human soluble ENPP1 [1] were 141 nM and 38 nM, respectively.
